The subject of data set [1] is Human immunodeficiency virus 1. As to the kind of experiment: Antiviral activity against HIV-1 IIIB infected in human C8166 cells assessed as inhibition of reverse transcriptase mediated cytopathic effect incubated for 3 days by MTT assay. In kind it is functional, organism-based. Particulars: Human immunodeficiency virus 1, IIIB, C8166, 72 h. Background: Protection from cytopathic effect is a common read-out in antiviral testing.

A short description of data set [2]: Cytotoxicity against human C8166 cells assessed as reduction in cell viability incubated for 3 days by MTT assay. In kind it is toxicity, cell-based. Particulars: time 3 day.
Data set [3] in a line: Therapeutic index, ratio of CC50 for cytotoxicity against human C8166 cells to EC50 for antiviral activity against HIV-1 IIIB infected in human C8166 cells. In kind it is toxicity, cell-based. Particulars: read-out: Ratio CC50/EC50.

Each structure is given as a SMILES string.

Here are results for 5 molecules from ChEMBL document CHEMBL5230158, “Artapilosines A and B, Unusual Phenanthrene Derivatives Related to Aporphine Alkaloids from Artabotrys pilosus” (J Nat Prod, 2021).

For orientation: EC50 means the concentration at which the effect is half-maximal. Usually CC50 stands for the concentration that lowers cell viability or growth by half. Take `O[C@H]1Cc2cc3c(c4c2c1cc1ccccc14)OCO3`: the EC50 in data set [1] came out at 0.0209 µM. Also, the CC50 at 72 h in data set [2] was determined as 3090 µM. The selectivity ratio in data set [3] came out at 148000.
For `OCCc1cc2c(c3c1ccc1ccccc13)OCO2`, in that order: 0.125 µM, 838 µM and 6690.
A word on the IC50: it is the concentration at which inhibition is half-maximal. For the molecule `CC(=O)N1CCc2cc3c(c4c2[C@H]1Cc1ccccc1-4)OCO3`, the IC50 in data set [1] is greater than 40 µM.
For `c1ccc2c(c1)C[C@H]1NCCc3cc4c(c-2c31)OCO4` [ANONAINE], the IC50 in data set [1] is greater than 40 µM.
Consider `Cc1cn([C@H]2C[C@H](N=[N+]=[N-])[C@@H](CO)O2)c(=O)[nH]c1=O` [ZIDOVUDINE], for which the EC50 in data set [1] is 0.0239 µM. Besides, in data set [2], the CC50 at 72 h is 3990 µM. Moreover, the selectivity ratio in data set [3] was 167000.
